Tests used:
[1] = Plasma protein binding (equilibrium dialysis), human; type: in vitro ADME; conditions: 1 and 10 μM, equilibrium dialysis 18 h, read-out: bound to plasma proteins (converted)
Experimental: (§1) Concentrated (10 mM) DMSO stock solutions of olinciguat were diluted to 1 and 10 μM in 2.5 ml of rat (male and female Sprague Dawley) and human plasma. Concentrated [^14C]-labeled olinciguat (1 μl,1 mCi/ml stock concentration) was spiked into each sample and mixed by vortexing. Triplicate 500 μl aliquots of plasma containing [^14C]-labeled olinciguat were transferred to a Rapid Equilibrium Dialysis system and dialyzed (molecular weight cut-off ~8000 Da) against 500 μl of phosphate-buffered saline (PBS) at room temperature for 18 h. Radioactivity of [^14C]-labeled olinciguat in PBS and plasma samples was measured using liquid scintillation counting.

[2] = system: vascular smooth muscle cells (VSMC) from rat aorta; assay: Rat aorta vascular smooth muscle cell proliferation (3H-thymidine incorporation); type: cell-based; conditions: Rattus norvegicus, VSMC
Experimental: We explored the concentration response of olinciguat, tadalafil, and olinciguat in the presence of 1 μM tadalafil on rat aorta vascular smooth muscle proliferation, Tadalafil was used because it is a once-daily PDE5 inhibitor that, like the three-times-daily PDE5 inhibitor sildenafil, is approved for treatment of PAH and ED. Vascular smooth muscle cells (VSMC) from rat aorta (Lonza, R-ASM-580) were plated into a 96-well plate at 15,000 cells per well in DMEM:F12 containing 20% FBS and GA-1000 ([Gentamicin, Amphotericin B], Lonza, CC-40863) for 24 h at 37°C. Medium was removed and cells were washed once with 100 μl DMEM:F12 before adding 100 μl of DMEM:F12 and incubating for 24 h to induce quiescence. Cells were then cultured for 24 h in DMEM:F12 supplemented with 5% FBS, in the presence of test articles (vehicle, olinciguat, tadalafil) with 10 µM DETA. In the last 6 h, 0.2 μCi of ^3H-thymidine (American Radiolabeled Chemicals, ART 0178A) was added to each well to measure DNA synthesis by thymidine incorporation. Cells were washed once with HBSS and then trypsinized and transferred into FB filter plates (Millipore, MADVNOB). A rapid-filtration technique using a filtration apparatus (Millipore, MAVM0960R) with vacuum aspiration was used to harvest and rinse labeled cells (6× with 0.2 ml of chilled water). The radioactivity bound to the filters was counted with 80 µl of liquid scintillant (PerkinElmer, UltraGold MV, 6013159) in a scintillation counter (Perkin Elmer Microbeta instrument).
In the vascular smooth muscle cell proliferation experiment, a comparison between the IC50's for olinciguat alone vs oliniciguat in the presence of 1 µM tadalafil was performed by a two-tailed t-test using Log EC50 best fit values and SEs determined from a four-parameter nonlinear curve fit, assuming n=60 degrees of freedom.

[3] = Dahl salt-sensitive rat model; type: in vivo; conditions: male, Dahl salt-sensitive (DSS), rat, plasma, oral; DSS rats, 10 mg/kg/day in chow, week 6, n=6; read-out: average total plasma concentration of olinciguat
Experimental: (§2) The Dataquest A.R.T.™ acquisition and analysis system (Data Sciences International [DSI], St. Paul, MN) was employed to monitor and analyze hemodynamic data from conscious, freely moving rats surgically implanted with a telemetry pressure transmitter (PA-C40). Telemetry transmitter implantation was performed on rats under sterile conditions. Rats were anesthetized with isoflurane and body temperature was maintained with a heating pad during surgery. A laparotomy was performed to expose the abdominal aorta. The catheter tip of the telemetry transmitter was inserted into the abdominal aorta and secured with a 5-0 silk suture (Ethicon, Inc., Somerville, NJ). The abdominal incision was closed with uninterrupted suture (4-0 silk, Ethicon, Inc., Somerville, NJ) and the telemetry transmitter was placed in the abdominal cavity and secured to the abdominal wall. Approximately 100 µl of 0.25% marcaine was applied directly to the closed abdominal wall, and the skin was then closed with suture (4-0 Vicryl® absorbable, Ethicon, Inc., Somerville, NJ). Buprenorphine (0.05 mg/kg/day, subcutaneous [s.c.]) was administered immediately after the surgery for postoperative pain relief. After recovery from anesthesia, rats were returned to their home cages, placed on DSI receivers, and allowed a 5- to 14-day recovery period. Arterial hemodynamics were measured continuously and recorded throughout the study. For acute studies, analysis was based on hourly averages, for chronic studies, analysis was based on daily or weekly averages.
(§3) Male DSS rats (n = 48, 230–300 g) were implanted with telemetry transmitters as described above. During the 2-week pretreatment period and the 6-week treatment period, rats were either fed a NS diet (0.3% NaCl, n=8) or a HS diet (8% NaCl). During the treatment period, one group of HS rats was continued on HS diet (HS, n=8) and a second group of HS rats was switched to a HS diet containing olinciguat targeting the dose equivalent of 10 mg/kg/day (OLI10, n=8). At the end of the 6-week treatment period, body weight was measured, urine was collected over a 24-h period using a metabolic cage for urinalysis, and blood samples were collected for plasma biomarker analyses. At the end of the study, rats were anesthetized, and whole bodies were perfused via the left ventricle with heparinized PBS (1 U/ml heparin) containing IBMX (1mM). Organs were collected and weighed. All organ weights were normalized to body weight. After weighing the heart, the right ventricular free wall was removed, and the left ventricular free wall plus left ventricular septum (LV+S) were weighed.
(§4) In the DSS model, daily MAP (24-h average) data were analyzed using two-way ANOVA, with time and treatment group as independent variables. For each day, groups were compared to the HS group with a Dunnett's post-hoc test. Body weight, LV+S, cardiac weight, lung weight, kidney weight, plasma NT-proBNP, and 24-h urine protein excretion (UPE) data were analyzed by one-way ANOVA, followed by Dunnett's multiple comparison to the HS group.

[4] = system: Dahl salt-sensitive (DSS) rats on high salt diet; assay: Dahl salt-sensitive rat model; type: in vivo; conditions: for MAP at the end of the treatment period: 6 weeks; for LV+S weight normalized to body weight: end of 6-week treatment
Experimental: as §2, §3, §4

[5] = Plasma protein binding (equilibrium dialysis), rat; type: in vitro ADME; conditions: both sexes, Sprague Dawley, 1 and 10 μM, equilibrium dialysis 18 h, no gender difference, read-out: bound to plasma proteins
Experimental: as §1

## NC(=O)[C@](O)(CNc1nc(-c2cc(-c3ccon3)n(Cc3ccccc3F)n2)ncc1F)C(F)(F)F [olinciguat, (R)-3,3,3-trifluoro-2-(((5-fluoro-2-(1-(2-fluorobenzyl)-5-(isoxazol-3-yl)-1H-pyrazol-3-yl)pyrimidin-4-yl)amino)methyl)-2-hydroxypropanamide]
[1]
  fraction unbound at 18 h: 0.0199
[2]; 5% FBS, 10 µM DETA, 3H-thymidine incorporation, 95% CI 22.4 to 39 nM, read-out: IC50, VSMC proliferation, olinciguat alone
  IC50: 29.6 nM
[2]; Table 2 summary, olinciguat alone, read-out: Rat vascular smooth muscle proliferation EC50, olinciguat concentration (range = 95% CI)
  EC50: 22.4 to 39 nM
[3]
  concentration at 6 weeks: 25.4 ± 3.8 nM
[4]; 10 mg/kg/day, total plasma concentration x 1.0% free
  Olinciguat concentration (free): 0.22–0.29 nM^e
[4]; HS diet, olinciguat 10 mg/kg/day in chow
  MAP at the end of the treatment period: 192 mmHg
[4]; HS diet, olinciguat 10 mg/kg/day in chow, listed as OLI10
  MAP at the end of the treatment period: 192 ± 7 mmHg
[4]; HS diet, olinciguat 10 mg/kg/day in chow, 161 ± 7 mmHg on day 14 before treatment
  MAP on day 16 (after treatment initiation): 146 ± 7 mmHg
[4]; HS diet, olinciguat 10 mg/kg/day vs NS control
  lung weight, fold higher than in NS: 1.2 fold
[4]; HS diet, olinciguat 10 mg/kg/day, HS 8.9 ± 1.7
  lung weight normalized to body weight: ↓ lung weight
[4]; HS diet, olinciguat 10 mg/kg/day, HS 8.9 ± 1.7, listed as OLI10
  lung weight normalized to body weight: 4.0 ± 0.1 g/kg BW
[4]; HS diet, olinciguat 10 mg/kg/day, HS 10.9 ± 0.5, not significantly different
  normalized kidney weight: 10.2 ± 0.23 g/kg BW
[4]; HS diet, olinciguat 10 mg/kg/day, HS 643 ± 60, not statistically significant
  24-h urine protein excretion (UPE): 599 ± 70 mg
[4]; HS diet, olinciguat 10 mg/kg/day, HS control 364 ± 19
  average body weight at the end of the treatment period: 412 ± 11 g
[4]; HS diet, olinciguat 10 mg/kg/day, data not shown
  cardiac weight vs HS: lower in OLI10 than HS
[4]; HS diet, olinciguat 10 mg/kg/day, HS 4.1 ± 0.2
  LV+S weight normalized to body weight: ↓ cardiac hypertrophy
[4]; HS diet, olinciguat 10 mg/kg/day, HS 4.1 ± 0.2, listed as OLI10
  LV+S weight normalized to body weight: 3.3 ± 0.1 g/kg BW
[4]; HS diet, olinciguat 10 mg/kg/day, lower than HS, listed as OLI10
  difference in MAP between olinciguat-treated and HS disease control at end of treatment period: 15 mmHg
[4]; HS diet, olinciguat 10 mg/kg/day, n=6, HS 2,833 ± 416
  plasma NT-proBNP: ↓ NT-proBNP
[4]; HS diet, olinciguat 10 mg/kg/day, n=6, HS 2,833 ± 416, listed as OLI10
  plasma NT-proBNP: 1,235 ± 301 pg/ml
[4]; olinciguat 10 mg/kg/day
  NT-proBNP, percent lower than untreated controls: 56%
[5]
  fraction unbound at 18 h: 0.01

— paper PMC7156612, “Olinciguat, an Oral sGC Stimulator, Exhibits Diverse Pharmacology Across Preclinical Models of Cardiovascular, Metabolic, Renal, and Inflammatory Disease” (Frontiers in Pharmacology, 2020)
